# Laboratory results published in patent publication US9918983B2, “Suicidal LSD1 inhibitors targeting SOX2-expressing cancer cells” (THE BOARD OF REGENTS OF THE NEVADA SYSTEM OF HIGHER …, priority 2013, dated 2018).
# What was measured:
# [1] = biological target: T1, LSD1 (Homo sapiens, UniProt O60341); assay: LSD1 activity (LSD1 IC50, Table 7, FIG. 2); format: cell-based
# T1 construct: LSD1 activity determined in a cell-based assay as described herein; endogenous in cells
# Method: For a typical deacetylation assay, 1 μg rHDAC1 or 1 μg immunoprecipitated endogenous HDAC1-protein A complexes (from two 10-cm dishes) was incubated with 0.4 μg H4K16ac peptide in the presence or absence of 50 μM CBB1007 or 2 μM MS-275 at 30° C. for 1 h. The percentages of deacetylated products were analyzed by mass spectrometry, and the data were analyzed by GraphPad Prism (version 5) software. The reaction products were analyzed by mass spectrometry to separate the peptide substrate (H4K16ac) and the product (H4K16), as previously described (Wang, J., et al. (2011) Cancer Research 71, 7238-7249). For a typical demethylation assay, 0.4 μg H3K4me2 substrate peptide was incubated individually with 1 μg recombinant LSD1 (rLSD1) or 1 μg immunoprecipitated LSD1-protein A complex in the presence or absence of 50 μM CBB1007 or 2 μM MS-275 at 30° C. for 1 h. The reaction products were analyzed by mass spectrometry to separate the products (H3K4me1 and H3K4) from the substrate (H3K4me2), as previously described (Wang, J., et al. (2011) Cancer Research 71, 7238-7249).
# Table 7 below lists specific compounds and LSD1 activity determined in a cell-based assay as described herein (see also FIGS. 2A and 2B).
# [2] = tested on: IGROV1 cells; assay: Cell cycle analysis by FACS in IGROV1 cells; format: cell-based, human; settings: 50 nM siRNA
# Method: (§1) The fluorescence-activated cell sorting (FACS) and 3-(4,5-dimethyl-2-thiazolyl)-2,5-diphenyl-2H-tetrazolium bromide (MTT) assays were conducted as described previously (Lan, R., et al. (2012) Lab. Invest. 92, 1503-1514). To synchronize PA-1 and F9 cells at the G1/S phase transition, cells were treated with 2.5 mM thymidine for 12 h, released into fresh medium for 6 h, and blocked again with 2.5 mM thymidine for an additional 12 h. The cell cycle arrest was analyzed by FACS. For differentiation, F9 and PA-1 cells were seeded in 6-well plates at a density of 1×10^4 cells per well and supplemented with 5 μM RA for 3 days. Cells were then recultured in fresh medium without RA for another 2 days, and the cell cycle was analyzed on a BD FACSCalibur cell sorter using the CellQuest program (Becton, Dickinson, Mountain View, Calif.). The percentages of cells in G1, S, and G2/M phases were determined by the use of ModFit LT software.
# (§2) Referring to FIG. 9C, Sox2-expressing A549, IGROV1, T47D and Sox2-negative H1437 cells were transfected with 50 nM luciferase (Luc) or LSD1 specific siRNAs for 60 hours and the cell cycle was analyzed by flow-cytometry (FACS).
# (§3) Referring to FIG. 17A, Sox2-expressing A549, IGROV1, and T47D and Sox2-negative H1437 cells were transfected with luciferase and Sox2 specific siRNAs for 48 hours. The cell cycles of these cells after Sox2 ablation were analyzed by flow-cytometry.
# [3] = tested on: A549 cells; assay: Cell cycle analysis by FACS in A549 cells; format: cell-based, human; settings: 50 nM siRNA
# Method: as §1, §2, §3
# [4] = tested on: H1437 cells; assay: Cell cycle analysis by FACS in H1437 cells; format: cell-based, human; settings: 50 nM siRNA
# Method: as §1, §2, §3
# [5] = tested on: T47D cells; assay: Cell cycle analysis by FACS in T47D cells; format: cell-based, human; settings: 50 nM siRNA
# Method: as §1, §2, §3
# [6] = tested on: acetylated H4K16; assay: H4K16 acetylation in HeLa cells (Western blotting); format: cell-based, human; settings: VPA 1 μM or MS-275 2 μM 24 h, TSA 40 nM 16 h
# Method: Referring to FIG. 31B, the acetylation of H4K16 is sensitive to pan-HDAC inhibitors in HeLa cells. F9 and HeLa cells were treated with the HDAC inhibitor VPA (1 μM) or MS-275 (2 μM) for 24 h or TSA (40 nM) for 16 h. Methylated and acetylated histones H3 and H4 were blotted by specific antibodies, as indicated, and quantified by the use of Gel-Pro Analyzer (version 4.0) software.
# [7] = biological target: T2, recombinant HDAC1 (GST-HDAC1) (Homo sapiens, UniProt Q13547); assay: In vitro deacetylation assay, recombinant HDAC1, H4K16ac peptide; format: biochemical; settings: 50 μM CBB1007 or 2 μM MS-275
# T2 construct: Human LSD1 and HDAC1 full-length cDNAs were obtained from Open Biosystems; GST (N, cleaved yes); made in house; host or cells: Escherichia coli BL21
# T2 sequence (Q13547 whole entry): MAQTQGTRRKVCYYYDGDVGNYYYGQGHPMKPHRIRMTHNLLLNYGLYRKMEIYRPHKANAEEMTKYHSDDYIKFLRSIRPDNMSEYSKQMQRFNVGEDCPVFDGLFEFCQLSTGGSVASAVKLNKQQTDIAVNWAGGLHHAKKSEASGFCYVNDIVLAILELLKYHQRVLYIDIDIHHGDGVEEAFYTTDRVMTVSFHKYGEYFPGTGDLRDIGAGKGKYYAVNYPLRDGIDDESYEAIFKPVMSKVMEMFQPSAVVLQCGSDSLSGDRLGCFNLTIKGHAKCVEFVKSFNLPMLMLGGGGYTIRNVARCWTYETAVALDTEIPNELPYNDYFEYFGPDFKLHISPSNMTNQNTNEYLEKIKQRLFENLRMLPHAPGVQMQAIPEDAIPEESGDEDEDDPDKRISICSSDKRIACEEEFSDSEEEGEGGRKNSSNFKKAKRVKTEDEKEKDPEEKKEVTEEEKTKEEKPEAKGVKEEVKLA
# Excerpt: Human LSD1 and HDAC1 full-length cDNAs were obtained from Open Biosystems. […] These cDNAs were fully sequenced and cloned into the pGEX-KG or pET28a vector and expressed as the glutathione S-transferase (GST)- or His-tagged fusion proteins in the Escherichia coli BL21 strain and affinity purified with glutathione or Ni-Sepharose (GE Healthcare, United Kingdom) resin. […] The GST tag and uncut GST-HDAC1/GST-LSD1 proteins were depleted by glutathione-Sepharose. For the reconstitution reaction, recombinant GST-CoREST, His-LSD1, and recombinant HDAC1 (rHDAC1) (GST was removed by the use of PreScission protease) (10 μg) were assembled into the LSD1-CoREST-HDAC1 complex and then pulled down by GSTSepharose resins. Protein A-Sepharose was used as a negative-control resin.
# [8] = biological target: T3, recombinant LSD1 (GST-LSD1) (Homo sapiens, UniProt O60341); assay: In vitro demethylation assay, recombinant LSD1, H3K4me2 peptide; format: biochemical; settings: H3K4me2 peptide, LSD1 and HDAC1 without CoREST
# T3 construct: Human LSD1 and HDAC1 full-length cDNAs were obtained from Open Biosystems; GST (N, cleaved yes); made in house; host or cells: Escherichia coli BL21
# Excerpt: H3K4me2 and H4K16ac were purchased from AnaSpec and Shanghai Science Peptide Biological Technology Co., Ltd., respectively. Human LSD1 and HDAC1 full-length cDNAs were obtained from Open Biosystems. Human CoREST cDNA was amplified by reverse transcription-PCR (RT-PCR) using mRNA isolated from HeLa cells. These cDNAs were fully sequenced and cloned into the pGEX-KG or pET28a vector and expressed as the glutathione S-transferase (GST)- or His-tagged fusion proteins in the Escherichia coli BL21 strain and affinity purified with glutathione or Ni-Sepharose (GE Healthcare, United Kingdom) resin. […]
# For a typical deacetylation assay, 1 μg rHDAC1 or 1 μg immunoprecipitated endogenous HDAC1-protein A complexes (from two 10-cm dishes) was incubated with 0.4 μg H4K16ac peptide in the presence or absence of 50 μM CBB1007 or 2 μM MS-275 at 30° C. for 1 h. The percentages of deacetylated products were analyzed by mass spectrometry, and the data were analyzed by GraphPad Prism (version 5) software. The reaction products were analyzed by mass spectrometry to separate the peptide substrate (H4K16ac) and the product (H4K16), as previously described (Wang, J., et al. (2011) Cancer Research 71, 7238-7249). […]
# [9] = biological target: T4, LSD1-CoREST-HDAC1 complex (Homo sapiens, UniProt O60341+Q13547); assay: Reconstituted LSD1-CoREST-HDAC1 complex on oligonucleosomes; format: biochemical; settings: 50 μM CBB1007 or 2 μM MS-275
# T4 construct: Human LSD1 and HDAC1 full-length cDNAs were obtained from Open Biosystems; GST (N, cleaved yes); made in house; host or cells: Escherichia coli BL21
# Method: For the reconstitution reaction, recombinant GST-CoREST, His-LSD1, and recombinant HDAC1 (rHDAC1) (GST was removed by the use of PreScission protease) (10 μg) were assembled into the LSD1-CoREST-HDAC1 complex and then pulled down by GSTSepharose resins. Protein A-Sepharose was used as a negative-control resin.
# Briefly, cells (1×10^6) were washed twice with ice-cold hypotonic buffer (20 mM potassium-HEPES, pH 7.8, 5 mM potassium acetate, 0.5 mM MgCl2, 0.5 mM DTT), swelled, and disrupted with 25 strokes in a Dounce homogenizer using a tightfitting pestle. Nuclei were pelleted at 4,000 rpm for 5 min and resuspended in buffer A (20 mM HEPES, pH 7.9, 1.5 mM magnesium acetate, 50 mM potassium acetate, 10% glycerol, 0.5 mM DTT, 150 mM NaCl, protease and phosphatase inhibitors). […] The chromatin pellet was resuspended in 0.5 mL buffer B (0.32 M sucrose, 50 mM Tris-HCl, pH 7.5, 4 mM MgCl2, 1 mM CaCl2, 0.1 mM phenylmethylsulfonyl fluoride) and incubated with 30 units of micrococcal nuclease for 10 min at 37° C. The digested samples were centrifuged at 8,000×g for 10 min, and the supernatant, which contained oligonucleosomes, was recovered.
# The reaction products (demethylated or deacetylated histones) were analyzed by Western blotting.
# [10] = biological target: T5, HDAC1-protein A complex (Mus musculus, UniProt O09106); assay: In vitro deacetylation assay, immunoaffinity-purified HDAC1-protein A complex from F9 cells; format: biochemical
# T5 construct: 1 μg immunoprecipitated endogenous HDAC1-protein A complexes; endogenous in cells; host or cells: F9 mouse teratocarcinoma cells, anti-HDAC1 immunoprecipitate on protein A-Sepharose
# Excerpt: (§4) The immunocomplexes were captured by protein A-Sepharose. Isolated LSD1-protein A or HDAC1-protein A complexes were verified by Western blotting with LSD1 and HDAC1 antibodies.
# [11] = tested on: histone H3 and H4 methylation and acetylation; assay: Histone modifications in F9 cells (Western blotting); format: cell-based, mouse
# Method: To quantify and compare the protein band densities in the Western blots shown in the figures, a titration by serial dilution of the siRNA protein samples for mES cell lysates was used as a reference. The concentration of titration samples was measured by use of a NanoDrop 2000 apparatus, and the protein concentration of all titration samples was adjusted to 1 μg/μL. The protein samples were loaded onto an SDS-polyacrylamide gel at levels ranging from 1 μg to 13 μg at 2-μg intervals and immune blotted with each antibody, including anti-LSD1, anti-HDAC1, and anti-histone H3 antibodies, with three independent loadings. The Western blots were developed with exposure times ranging from 30 s to 1 min. The exposure density of each band was scanned by Adobe Photoshop Elements (version 4.0) software using a CanonScan 8600F scanner (Canon, Calif.) and was subsequently quantified by use of the area density tool of Gel-Pro Analyzer (version 4.0) software (Media Cybernetics, Inc.) and plotted. The regression analysis of each signal was performed by use of the Microsoft Excel program's Analysis Tool Pak regression option. […] The amount of the protein band in the Western blot shown in the figures was quantified by scanning, as described for the reference titration. […] The quantity of protein band densities between two protein samples was externally corrected by use of the reference plots. […] The statistical differences between the experimental and control groups were analyzed by one-way analysis of variance (ANOVA). […]
# Referring to FIG. 28D, time course analyses of the effects of 50 μM LSD1 inhibitor CBB1007 on histone modifications in F9 cells are shown, but with a shorter time course than above. The mean density of each band was quantified by the use of Gel-Pro Analyzer (version 4.0) software, and error bars represent SEMs for duplicate samples. […] The statistical differences were analyzed by one-way ANOVA. *, P_0.05; **, P_0.01. […]
# [12] = biological target: T6, LSD1-protein A complex (Mus musculus, UniProt Q6ZQ88); assay: In vitro demethylation assay, immunoaffinity-purified LSD1-protein A complex from F9 cells; format: biochemical
# T6 construct: recombinant and endogenous LSD1 complexes isolated from F9 cells; endogenous in cells; host or cells: F9 mouse teratocarcinoma cells, anti-LSD1 immunoprecipitate on protein A-Sepharose
# Excerpt: as §4
compound,measurement,setting,value
N[C@@H]1C[C@H]1c1ccc(OCc2ccccc2)cc1 [Compound 3],IC50,[1],39.4 µM
"LSD1 siRNA: siRNA, human LSD1: GGAAGAAGAUAGUGAAAAC (SEQ ID NO:1) (listed as RNA, chemistry not given here)",cell cycle population G0/G1,[2],78.07%
same,cell cycle population G2/M,[2],8.56%
same,cell cycle population S,[2],13.37%
same,cell cycle population G0/G1,[3],74.81%
same,cell cycle population G2/M,[3],0.65%
same,cell cycle population S,[3],24.55%
same,cell cycle population G0/G1,[4],37.28%
same,cell cycle population G2/M,[4],37.75%
same,cell cycle population S,[4],24.97%
same,cell cycle population G0/G1,[5],76.34%
same,cell cycle population G2/M,[5],12.17%
same,cell cycle population S,[5],11.49%
"CCCC(CCC)C(=O)O [VPA, valproic acid]",acetylated H4K16 level,[6],induced the accumulation of acetylated H4K16
"CC(/C=C/C(=O)NO)=C\[C@@H](C)C(=O)c1ccc(N(C)C)cc1 [TSA, trichostatin A]",acetylated H4K16 level,[6],induced the accumulation of acetylated H4K16
"Sox2 siRNA: siRNA, human Sox2: CGCUCAUGAAGAAGGAUAA (SEQ ID NO:2) (listed as RNA, chemistry not given here)",cell cycle population G0/G1,[2],74.62%
same,cell cycle population G2/M,[2],12.52%
same,cell cycle population S,[2],12.87%
same,cell cycle population G0/G1,[3],76.40%
same,cell cycle population G2/M,[3],0.19%
same,cell cycle population S,[3],23.41%
same,cell cycle population G0/G1,[4],39.39%
same,cell cycle population G2/M,[4],35.51%
same,cell cycle population S,[4],25.10%
same,cell cycle population G0/G1,[5],74.65%
same,cell cycle population G2/M,[5],10.86%
same,cell cycle population S,[5],14.48%
Nc1ccccc1NC(=O)c1ccc(CNC(=O)OCc2cccnc2)cc1 [MS-275],deacetylase activity of recombinant HDAC1,[7],inhibited
same,acetylated H4K16 level,[6],induced the accumulation of acetylated H4K16
same,LSD1 activity in the absence of CoREST,[8],not sensitive
same,HDAC1 deacetylase activity in the reconstituted complex,[9],blocking the HDAC1 activity
same,LSD1 demethylase activity in the reconstituted complex,[9],partially inhibit the LSD1 demethylase activity
same,deacetylase activity of immunoaffinity-purified HDAC1 (HDAC1-protein A),[10],sensitive
same,H4K16 acetylation of oligonucleosomes from treated cells,[11],hyperacetylated on H4K16
same,demethylation activity of immunoaffinity-purified LSD1 (LSD1-protein A),[12],blocked the demethylation activity
CN1CCN(CCN[C@@H]2C[C@H]2c2ccc(OCc3ccccc3)cc2)CC1 [Compound 2],IC50,[1],31.4 µM
